Reference: patent US20010056085A1, “Methods of using vesicant drug formulations” (priority 1996, published 2001)
Values joined by “and” are separate entries in the source; they are usually repeats but may differ in a detail not shown here. Equal values may be shown once. Read-outs that look alike come from different tables or passages of the source.

Experiment: Half-life of ADR destruction by UVA light in the presence of test compounds (decrease in absorbance at 480 nm)
Type: physicochemical
[1] = UVA light, 100 μM test compound alone
[2] = UVA light, 100 μM test compound with 0.5 μM riboflavin

In the case of CC(=O)c1ccc2cc(C)ccc2c1 [6-Methyl-2-acetonaphthone], the “Half-Life of ADR Destruction, 100 μM Test Compound” value [1] is reported as 8.85 min and the “Half-Life of ADR Destruction, 100 μM Test Compound and 0.5 μM Riboflavin” value [2] is reported as 7.53 min.
With Nc1ccc(C(=O)O)cc1 [4-Amino Benzoic Acid] the “Half-Life of ADR Destruction, 100 μM Test Compound and 0.5 μM Riboflavin” value [2] was 20.6 ± 9.7 min.
With c1cc2c([nH]1)CCCC2 [4,5,6,7-tetrahydroindole] the “Half-Life of ADR Destruction, 100 μM Test Compound and 0.5 μM Riboflavin” value [2] was 14.3 min.
In the case of CCC(=O)c1ccccc1 [Propriophenone], the “Half-Life of ADR Destruction, 100 μM Test Compound” value is reported as 43.0 min.
For O=c1[nH]c(=O)c2nccnc2[nH]1 [Lumazine], the “Half-Life of ADR Destruction, 100 μM Test Compound” value [1] was 5.79 min and the “Half-Life of ADR Destruction, 100 μM Test Compound and 0.5 μM Riboflavin” value [2] was 3.31 min.
With O=C(O)C1=CC=C2N=NN=C2C1 [5-Benzotriazole-carboxylic acid] the “Half-Life of ADR Destruction, 100 μM Test Compound and 0.5 μM Riboflavin” value [2] was 75.3 min.
In the case of Cn1c2ccccc2c(=O)c2ccccc21 [10-Methyl-9(10H) Acridone], the “Half-Life of ADR Destruction, 100 μM Test Compound” value is reported as 16.7 min.
With COC(=O)c1ccc(N)cc1 [Methyl-4-aminobenzoate] the “Half-Life of ADR Destruction, 100 μM Test Compound and 0.5 μM Riboflavin” value [2] was 10.8 min.
For CC(=O)c1cccn1C [2-Acetyl-1-methyl Pyrrole], the “Half-Life of ADR Destruction, 100 μM Test Compound and 0.5 μM Riboflavin” value [2] was 50.2 min.
In the case of O=C(O)CCc1ccc(O)c(O)c1 [3-(3,4-Dihydroxyphenyl) Propionic Acid], the “Half-Life of ADR Destruction, 100 μM Test Compound” value [1] is reported as 75.3 min.
In the case of O=C(O)CCOc1cccc2ccccc12 [3-(1-naphthyloxy) propionic acid], the “Half-Life of ADR Destruction, 100 μM Test Compound” value [1] is reported as 75.3 min.
For COc1cc(OC)c(OC)cc1C=CC(=O)O [2,4,5-Trimethoxy Cinnamic Acid], the “Half-Life of ADR Destruction, 100 μM Test Compound and 0.5 μM Riboflavin” value [2] was 18.8 min.
For COc1ccc2cc(C#N)ccc2c1 [6-Methoxynaphthalene-2-nitrile], the “Half-Life of ADR Destruction, 100 μM Test Compound” value [1] was 23.2 min and the “Half-Life of ADR Destruction, 100 μM Test Compound and 0.5 μM Riboflavin” value [2] was 20.1 min.
In the case of O=C(O)CCCc1c[nH]c2ccccc12 [3-Indolebutyric acid], the “Half-Life of ADR Destruction, 100 μM Test Compound and 0.5 μM Riboflavin” value [2] is reported as 10.0 min.
With O=c1c2ccccc2oc2ncccc12 [1-Azaxanthrone] the “Half-Life of ADR Destruction, 100 μM Test Compound” value [1] was 2.87 min and the “Half-Life of ADR Destruction, 100 μM Test Compound and 0.5 μM Riboflavin” value [2] was 2.60 min.
With Nc1ccc([N+](=O)[O-])cc1[N+](=O)[O-] [2,4-Dinitro Aniline] the “Half-Life of ADR Destruction, 100 μM Test Compound” value was 75.3 min and the “Half-Life of ADR Destruction, 100 μM Test Compound and 0.5 μM Riboflavin” value was 50.2 min.
With Nc1ccc(CCC(=O)O)cc1 [3-(4-Aminophenyl) Propionic Acid] the “Half-Life of ADR Destruction, 100 μM Test Compound and 0.5 μM Riboflavin” value [2] was 6.41 min.
In the case of Nc1ccc(C(=O)O)cc1O [4-Amino-3-Hydroxy Benzoic Acid], the “Half-Life of ADR Destruction, 100 μM Test Compound and 0.5 μM Riboflavin” value [2] is reported as 75.3 min.
For O=S(=O)(c1ccc(O)cc1)c1ccc(O)cc1 [4,4-Dihydroxy Phenylsulfone], the “Half-Life of ADR Destruction, 100 μM Test Compound” value [1] was 43.0 min and the “Half-Life of ADR Destruction, 100 μM Test Compound and 0.5 μM Riboflavin” value [2] was 43.0 min.
In the case of NC(=O)NC(=O)c1ccccc1 [Benzoylurea], the “Half-Life of ADR Destruction, 100 μM Test Compound” value [1] is reported as 43.0 min.
For O=Cc1ccc2ccccc2c1 [2-Naphthaldehyde], the “Half-Life of ADR Destruction, 100 μM Test Compound” value [1] was 6.14 min and the “Half-Life of ADR Destruction, 100 μM Test Compound and 0.5 μM Riboflavin” value [2] was 5.68 min.
In the case of O=c1c2ccccc2oc2ccccc12 [Xanthrone], the “Half-Life of ADR Destruction, 100 μM Test Compound” value [1] is reported as 5.47 min and the “Half-Life of ADR Destruction, 100 μM Test Compound and 0.5 μM Riboflavin” value [2] is reported as 6.84 min.
For CC(O)c1ccc2ccccc2c1 (stereo not drawn) [α-Methyl-2-naphthalenemethanol], the “Half-Life of ADR Destruction, 100 μM Test Compound” value [1] was 43.0 min and the “Half-Life of ADR Destruction, 100 μM Test Compound and 0.5 μM Riboflavin” value [2] was 33.5 min.
For COc1cccc(O)c1 [3-Methoxy Phenol], the “Half-Life of ADR Destruction, 100 μM Test Compound” value [1] was 43.0 min.
With O=C(O)C=Cc1ccc(O)cc1 [4-Hydroxy Cinnamic Acid] the “Half-Life of ADR Destruction, 100 μM Test Compound” value [1] was 50.2 min.
In the case of OCC=Cc1ccccc1 [Cinnamyl Alcohol], the “Half-Life of ADR Destruction, 100 μM Test Compound” value [1] is reported as 43.0 min.
For NC(=O)c1ccccc1N [2-Aminobenzamide], the “Half-Life of ADR Destruction, 100 μM Test Compound and 0.5 μM Riboflavin” value [2] was 33.5 min.
In the case of Cc1cc(C)cc(N)c1 [3,5-Dimethyl Aniline], the “Half-Life of ADR Destruction, 100 μM Test Compound and 0.5 μM Riboflavin” value [2] is reported as 100.4 ± 70.9 min.
In the case of COc1ccc2[nH]cc(CC(=O)O)c2c1 [5-Methoxyindole-3-acetic acid], the “Half-Life of ADR Destruction, 100 μM Test Compound” value [1] is reported as 17.7 min and the “Half-Life of ADR Destruction, 100 μM Test Compound and 0.5 μM Riboflavin” value [2] is reported as 3.67 min.
For Nc1ccccc1CCO [2-Amino Phenylethyl Alcohol], the “Half-Life of ADR Destruction, 100 μM Test Compound and 0.5 μM Riboflavin” value [2] was 13.7 min.
For O=C(O)/C=C/c1c[nH]c2ccccc12 [trans-3-Indoleacrylic acid], the “Half-Life of ADR Destruction, 100 μM Test Compound and 0.5 μM Riboflavin” value [2] was 6.84 min.
With O=C(O)c1cccc2c1C(=O)c1ccccc1-2 [9-Fluorenone-1-carboxylic acid] the “Half-Life of ADR Destruction, 100 μM Test Compound” value [1] was 43.0 min and the “Half-Life of ADR Destruction, 100 μM Test Compound and 0.5 μM Riboflavin” value [2] was 43.0 min.
With Cn1cc(C[C@H](N)C(=O)O)c2ccccc21 [1-Methyl-tryptophan] the “Half-Life of ADR Destruction, 100 μM Test Compound and 0.5 μM Riboflavin” value [2] was 9.71 min.
In the case of Cc1ccc(C(=O)O)cc1N [3-Amino-4-Methyl Benzoic Acid], the “Half-Life of ADR Destruction, 100 μM Test Compound and 0.5 μM Riboflavin” value [2] is reported as 13.7 min.
In the case of Nc1ccccc1C(=O)CC(N)C(=O)O (stereo not shown) [Kynurenine], the “Half-Life of ADR Destruction, 100 μM Test Compound and 0.5 μM Riboflavin” value [2] is reported as 75.3 min.
With Cc1cccc2cc[nH]c12 [7-Methyl Indole] the “Half-Life of ADR Destruction, 100 μM Test Compound and 0.5 μM Riboflavin” value [2] was 16.7 min.
With COc1ccc2[nH]ccc2c1 [5-Methoxy Indole] the “Half-Life of ADR Destruction, 100 μM Test Compound and 0.5 μM Riboflavin” value [2] was 25.1 min and 14.3 min.
With CC(=O)c1ccc[nH]1 [2-Acetyl Pyrrole] the “Half-Life of ADR Destruction, 100 μM Test Compound” value [1] was 50.2 min and the “Half-Life of ADR Destruction, 100 μM Test Compound and 0.5 μM Riboflavin” value [2] was 30.1 min.
In the case of Cc1cc(CC(=O)O)n(C)c1C(=O)c1ccc(Cl)cc1 [Zomepirac, 5-(4-Chlorobenzoyl)-1,4-dimethyl-pyrrole-2-acetic acid, reference compound], the “Half-Life of ADR Destruction, 100 μM Test Compound” value [1] is reported as 42.0 min, the “Half-Life of ADR Destruction, 100 μM Test Compound” value (UVA light, 100 μM test compound alone, listed as 5-(4-Chlorobenzoyl)-1,4-dimethyl-pyrrole-2-acetic acid (Zomepirac)) is reported as 43.0 min and the “Half-Life of ADR Destruction, 100 μM Test Compound and 0.5 μM Riboflavin” value [2] is reported as 20.1 min.
In the case of NCc1ccc(CN)cc1 [4-Aminomethyl Benzylamine], the “Half-Life of ADR Destruction, 100 μM Test Compound and 0.5 μM Riboflavin” value [2] is reported as 50.2 min and 33.5 min.
With Cc1c[nH]c2ccccc12 [3-Methyl Indole] the “Half-Life of ADR Destruction, 100 μM Test Compound and 0.5 μM Riboflavin” value [2] was 20.1 min.
With N[C@@H](Cc1c[nH]c2ccc(O)cc12)C(=O)O [5-Hydroxy-tryptophan] the “Half-Life of ADR Destruction, 100 μM Test Compound and 0.5 μM Riboflavin” value [2] was 301.0 min.
For CCCc1ccccc1N [2-Propyl Aniline], the “Half-Life of ADR Destruction, 100 μM Test Compound and 0.5 μM Riboflavin” value [2] was 9.41 min.
In the case of Nc1cccc(S(=O)(=O)O)c1 [3-Amino Benzenesulfonic acid], the “Half-Life of ADR Destruction, 100 μM Test Compound and 0.5 μM Riboflavin” value [2] is reported as 17.7 min.
With O=C(O)C=Cc1ccc2ccccc2c1 [3-(2-Naphthyl)acrylic acid] the “Half-Life of ADR Destruction, 100 μM Test Compound and 0.5 μM Riboflavin” value [2] was 43.0 min.
For Oc1ccc2ccccc2c1 [2-Hydroxynaphthalene], the “Half-Life of ADR Destruction, 100 μM Test Compound” value [1] was 30.1 min and the “Half-Life of ADR Destruction, 100 μM Test Compound and 0.5 μM Riboflavin” value [2] was 23.2 min.
In the case of O=C(O)Cc1c[nH]c2ccccc12 [Indole-3-acetic acid], the “Half-Life of ADR Destruction, 100 μM Test Compound” value [1] is reported as 27.4 ± 14.1 min and the “Half-Life of ADR Destruction, 100 μM Test Compound and 0.5 μM Riboflavin” value [2] is reported as 3.75 ± 0.22 min.
In the case of Cc1[nH]c2ccccc2c1C [2,3-Dimethyl Indole], the “Half-Life of ADR Destruction, 100 μM Test Compound and 0.5 μM Riboflavin” value [2] is reported as 20.1 min.
For Cn1ccc2ccccc21 [1-methyl Indole], the “Half-Life of ADR Destruction, 100 μM Test Compound and 0.5 μM Riboflavin” value [2] was 33.5 min.
With O=C(O)C(=O)c1c[nH]c2ccccc12 [3-Indole glyoxylic acid] the “Half-Life of ADR Destruction, 100 μM Test Compound and 0.5 μM Riboflavin” value [2] was 43.0 min.
For O=C(c1ccccc1)c1ccc2n1CCC2C(=O)O (stereo not shown) [Ketorlac, reference compound], the “Half-Life of ADR Destruction, 100 μM Test Compound” value was 4.07 min and the “Half-Life of ADR Destruction, 100 μM Test Compound and 0.5 μM Riboflavin” value was 3.81 min.
In the case of Cc1ccc2[nH]cc(C[C@H](N)C(=O)O)c2c1 [5-Methyl-tryptophan], the “Half-Life of ADR Destruction, 100 μM Test Compound and 0.5 μM Riboflavin” value [2] is reported as 23.2 min.
In the case of NC(C(=O)O)c1ccccc1 (stereo not shown) [Phenylglycine], the “Half-Life of ADR Destruction, 100 μM Test Compound and 0.5 μM Riboflavin” value [2] is reported as 67.8 ± 10.7 min.
In the case of Cc1cccc(N)c1 [3-Methyl Aniline], the “Half-Life of ADR Destruction, 100 μM Test Compound and 0.5 μM Riboflavin” value is reported as 33.5 min.
In the case of CCc1ccc(N)cc1 [4-Ethyl Aniline], the “Half-Life of ADR Destruction, 100 μM Test Compound and 0.5 μM Riboflavin” value [2] is reported as 10.4 min.
In the case of CC(C(=O)O)c1ccc2c(c1)[nH]c1ccc(Cl)cc12 (stereo not drawn) [6-Chlro-α-methyl-carbazole-2-acetic acid, reference compound], the “Half-Life of ADR Destruction, 100 μM Test Compound and 0.5 μM Riboflavin” value [2] is reported as 25.6 ± 11.2 min.
With c1ccc2sccc2c1 [Thianaphthalene] the “Half-Life of ADR Destruction, 100 μM Test Compound and 0.5 μM Riboflavin” value [2] was 50.2 min.
In the case of COC(=O)[C@@H](N)Cc1ccc(O)cc1 [Tyrosine Methyl Ester], the “Half-Life of ADR Destruction, 100 μM Test Compound and 0.5 μM Riboflavin” value [2] is reported as 43.0 min.
With OCCc1ccc2ccccc2c1 [2-Naphthaleneethanol] the “Half-Life of ADR Destruction, 100 μM Test Compound” value [1] was 50.2 min and the “Half-Life of ADR Destruction, 100 μM Test Compound and 0.5 μM Riboflavin” value [2] was 33.5 min.
With O=C1c2ccc(S(=O)(=O)O)cc2C(=O)c2ccc(S(=O)(=O)O)cc21 [Anthraquinone-2,6-disulfonic acid] the “Half-Life of ADR Destruction, 100 μM Test Compound” value [1] was 0.275 min and the “Half-Life of ADR Destruction, 100 μM Test Compound and 0.5 μM Riboflavin” value [2] was 0.283 min.
